Measured values taken from the supplement of paper PMC6965134.
± gives the standard deviation of the averaged measurements. Each block holds one molecule with its values, some of them ahead of it.

Assays:
[1] = TIMS collisional cross section (CCS, N2) of the lipid ion; higher = larger ion cross section; details: ionization mode: negative, one isomer drawn
Experimental: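 Lipid extracts of human plasma (NIST SRM 1950), mouse liver or HeLa cells were separated by nanoflow C18 LC (30 min gradient) and analysed by TIMS-PASEF on a timsTOF Pro. Ion mobility was calibrated with the Agilent tuning mix (negative mode ions) and converted to collisional cross sections (Mason–Schamp, N2).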

[2] = as above; details: ionization mode: positive, one isomer drawn
[3] = sample type: Human plasma, ion (formula + adduct): [C34H62O5-H] 1-
[4] = sample type: Human plasma, ion (formula + adduct): [C36H66O5-H] 1-

SMILES: CCCCC/C=C\C/C=C\CCCCCCCC(=O)OC[C@H](COP(=O)(O)OCC(O)COP(=O)(O)OC[C@@H](COC(=O)CCCCCCC/C=C\C/C=C\CCCCC)OC(=O)CCCCCCC/C=C\C/C=C\CCCCC)OC(=O)CCCCCCC/C=C\C/C=C\CCCCC (some centres not stated) [CL 18:2_18:2_18:2_18:2]
TIMS collisional cross section ([1]; sample type: Mouse Liver, ion (formula + adduct): [C81H142O17P2-H] 2-): 411.8 Å²

SMILES: CCCCCCCCCCCCC/C=C/[C@@H](O)[C@H](CO)NC(=O)CCCCCCCCCCCCCCCCCCCCC [Cer d18:1_22:0]
TIMS collisional cross section ([1]; sample type: Mouse Liver, ion (formula + adduct): [C40H79NO3-H] 1-): 265 Å²

SMILES: CCCCCCCC/C=C\CCCCCCCC(=O)O[C@@H](CO)COC(=O)CCCCCCCCCCCC [DG 13:0_18:1@_0:0]
TIMS collisional cross section ([1]; sample type: Mouse Liver, ion (formula + adduct): [C34H64O5+AcO] 1-): 252.3 Å²

SMILES: CCCCC/C=C\C/C=C\C/C=C\C/C=C\CCCC(=O)O[C@@H](CO)COC(=O)CCCCCCCCCCCCC [DG 14:0@_20:4_0:0]
TIMS collisional cross section ([1]; sample type: Human plasma, ion (formula + adduct): [C37H64O5+HCOO] 1-): 256.2 Å²

SMILES: CCCC/C=C\CCCCCCCC(=O)OC[C@H](CO)OC(=O)CCCCCCCCC/C=C\C/C=C\CCCCC [DG 14:1@_20:2_0:0]
TIMS collisional cross section ([1]; sample type: Human plasma, ion (formula + adduct): [C37H66O5-H] 1-): 247.2 Å²

SMILES: CCCCC/C=C\CCCCCCCC(=O)OC[C@H](CO)OC(=O)CCCCCCC/C=C\CCCCCC [DG 15:1@_16:1_0:0]
TIMS collisional cross section [1, 3]: 245.3 Å²

SMILES: CCCCC/C=C\CCCCCCCC(=O)OC[C@H](CO)OC(=O)CCCCCCC/C=C\CCCCCCCC [DG 15:1@_18:1_0:0]
TIMS collisional cross section [1, 4]: 253.8 Å²

SMILES: CCCCCCCCCCCCCCCC(=O)OC[C@@H](O)COP(=O)(O)O [LPA 16:0_0:0]
TIMS collisional cross section ([1]; sample type: Human plasma, ion (formula + adduct): [C19H39O7P-H] 1-): 201.2 Å²

SMILES: CCCCC/C=C\C/C=C\C/C=C\C/C=C\CCCC(=O)OC[C@@H](O)COP(=O)(O)O [LPA 20:4_0:0]
TIMS collisional cross section ([1]; sample type: Human plasma, ion (formula + adduct): [C23H39O7P-H] 1-): 207.1 Å²

SMILES: CC/C=C\C/C=C\C/C=C\C/C=C\C/C=C\CCCC(=O)OCC(O)COP(=O)(O)O (configuration not stated) [LPA 20:5]
TIMS collisional cross section ([1]; sample type: Human plasma, ion (formula + adduct): [C23H37O7P-H] 1-): 206.5 Å²

SMILES: CC/C=C\C/C=C\C/C=C\C/C=C\C/C=C\C/C=C\CCC(=O)OC[C@@H](O)COP(=O)(O)O [LPA 22:6_0:0]
TIMS collisional cross section ([1]; sample type: Human plasma, ion (formula + adduct): [C25H39O7P-H] 1-): 211 Å² | TIMS collisional cross section ([1]; sample type: Mouse Liver, ion (formula + adduct): [C25H39O7P-H] 1-): 211.6 Å²

SMILES: CCCCCCCCCCCCCC(=O)OC[C@@H](O)COP(=O)([O-])OCC[N+](C)(C)C [LPC 14:0_0:0]
TIMS collisional cross section ([1]; sample type: Human plasma, ion (formula + adduct): [C22H46NO7P+HCOO] 1-): 231.1 ± 0.42 Å² | TIMS collisional cross section ([1]; sample type: Human plasma, ion (formula + adduct): [C22H46NO7P-CH3] 1-): 219.7 Å² | TIMS collisional cross section ([1]; sample type: Mouse Liver, ion (formula + adduct): [C22H46NO7P+HCOO] 1-): 231.3 Å²

SMILES: CCCCCCCCCCCCCCCC(=O)OC[C@@H](O)COP(=O)([O-])OCC[N+](C)(C)C [LPC 16:0_0:0]
TIMS collisional cross section ([1]; sample type: Human plasma, ion (formula + adduct): [C24H50NO7P+Cl] 1-): 234.8 Å² | TIMS collisional cross section ([1]; sample type: Human plasma, ion (formula + adduct): [C24H50NO7P+HCOO] 1-): 238.02 ± 0.4 Å² | TIMS collisional cross section ([1]; sample type: Human plasma, ion (formula + adduct): [C24H50NO7P-CH3] 1-): 218.1 Å² | TIMS collisional cross section ([1]; sample type: Mouse Liver, ion (formula + adduct): [C24H50NO7P+HCOO] 1-): 241.2 ± 5.1 Å² | TIMS collisional cross section ([1]; sample type: Mouse Liver, ion (formula + adduct): [C24H50NO7P-CH3] 1-): 218.7 Å²

SMILES: CCCCCCCCCCCCCCCCCC(=O)OC[C@@H](O)COP(=O)([O-])OCC[N+](C)(C)C [LPC 18:0_0:0]
TIMS collisional cross section ([1]; sample type: Human plasma, ion (formula + adduct): [C26H54NO7P+HCOO] 1-): 246.01 ± 2.8 Å² | TIMS collisional cross section ([1]; sample type: Human plasma, ion (formula + adduct): [C26H54NO7P-CH3] 1-): 225.5 Å² | TIMS collisional cross section ([1]; sample type: Mouse Liver, ion (formula + adduct): [C26H54NO7P+HCOO] 1-): 244.8 ± 0.42 Å²

SMILES: CCCCCCCCCCCCCCCCCCCC(=O)OC[C@@H](O)COP(=O)([O-])OCC[N+](C)(C)C [LPC 20:0_0:0]
TIMS collisional cross section ([1]; sample type: Human plasma, ion (formula + adduct): [C28H58NO7P+HCOO] 1-): 253 Å²

SMILES: CCCCC/C=C\C/C=C\C/C=C\C/C=C\CCCC(=O)OC[C@@H](O)COP(=O)([O-])OCC[N+](C)(C)C [LPC 20:4_0:0]
TIMS collisional cross section ([1]; sample type: Human plasma, ion (formula + adduct): [C28H50NO7P+HCOO] 1-): 243.1 Å² | TIMS collisional cross section ([1]; sample type: Human plasma, ion (formula + adduct): [C28H50NO7P-CH3] 1-): 225.9 ± 0.85 Å²

SMILES: CC/C=C\C/C=C\C/C=C\C/C=C\C/C=C\C/C=C\CCC(=O)OC[C@@H](COC(=O)CCCCCCC/C=C\C/C=C\CCCCC)OC(=O)CC/C=C\C/C=C\C/C=C\C/C=C\C/C=C\C/C=C\CC [TG 18:2_22:6_22:6] (ion (formula + adduct): [C65H98O6+NH4] 1+)
TIMS collisional cross section ([2]; sample type: Liver): 333.6 Å²

SMILES: CC/C=C\C/C=C\C/C=C\C/C=C\C/C=C\C/C=C\CCC(=O)OC[C@@H](COC(=O)CCC/C=C\C/C=C\C/C=C\C/C=C\CCCCC)OC(=O)CCC/C=C\C/C=C\C/C=C\C/C=C\CCCCC [TG 20:4_20:4_22:6] (ion (formula + adduct): [C65H98O6+NH4] 1+)
TIMS collisional cross section ([2]; sample type: HeLa): 333.7 Å²

SMILES: CC/C=C\C/C=C\C/C=C\C/C=C\C/C=C\C/C=C\CCC(=O)OC[C@@H](COC(=O)CCC/C=C\C/C=C\C/C=C\C/C=C\CCCCC)OC(=O)CCCCC/C=C\C/C=C\C/C=C\C/C=C\C/C=C\CC [TG 20:4_22:5_22:6] (ion (formula + adduct): [C67H100O6+NH4] 1+)
TIMS collisional cross section ([2]; sample type: HeLa): 338.1 Å²

Other lines, results leading:

TIMS collisional cross section ([1]; sample type: Human plasma, ion (formula + adduct): [C33H60O5-H] 1-): 229.1 Å²
SMILES: CCCCC/C=C\C/C=C\CCCCCCCC(=O)O[C@@H](CO)COC(=O)CCCCCCCCCCC [DG 12:0@_18:2_0:0]

TIMS collisional cross section [1, 3]: 244.7 Å²
SMILES: CCCCC/C=C\C/C=C\CCCCCCCC(=O)O[C@@H](CO)COC(=O)CCCCCCCCCCCC [DG 13:0@_18:2_0:0]

TIMS collisional cross section [1, 4]: 254.4 Å²
SMILES: CCCCC/C=C\C/C=C\CCCCCCCC(=O)O[C@@H](CO)COC(=O)CCCCCCCCCCCCCC [DG 15:0@_18:2_0:0]

TIMS collisional cross section ([1]; sample type: Human plasma, ion (formula + adduct): [C36H62O5-H] 1-): 251.2 Å²
SMILES: CC/C=C\C/C=C\C/C=C\CCCCCCCC(=O)O[C@@H](CO)COC(=O)CCCCCCC/C=C\CCCCC [DG 15:1@_18:3_0:0]

TIMS collisional cross section ([1]; sample type: Human plasma, ion (formula + adduct): [C19H37O7P-H] 1-): 198.2 Å²
SMILES: CCCCCC/C=C\CCCCCCCC(=O)OC[C@@H](O)COP(=O)(O)O [LPA 16:1_0:0]

TIMS collisional cross section ([1]; sample type: Human plasma, ion (formula + adduct): [C21H41O7P-H] 1-): 205 Å²
SMILES: CCCCCCCC/C=C\CCCCCCCC(=O)OC[C@@H](O)COP(=O)(O)O [LPA 18:1_0:0]

TIMS collisional cross section ([1]; sample type: Human plasma, ion (formula + adduct): [C21H39O7P-H] 1-): 207.7 ± 8.1 Å²
SMILES: CCCCC/C=C\C/C=C\CCCCCCCC(=O)OC[C@@H](O)COP(=O)(O)O [LPA 18:2_0:0]

TIMS collisional cross section ([1]; sample type: Human plasma, ion (formula + adduct): [C24H48NO7P+HCOO] 1-): 236.14 ± 0.68 Å² | TIMS collisional cross section ([1]; sample type: Human plasma, ion (formula + adduct): [C24H48NO7P-CH3] 1-): 237.8 Å² | TIMS collisional cross section ([1]; sample type: Mouse Liver, ion (formula + adduct): [C24H48NO7P+HCOO] 1-): 235 ± 0.42 Å²
SMILES: CCCCCC/C=C/CCCCCCCC(=O)OC[C@@H](O)COP(=O)([O-])OCC[N+](C)(C)C [LPC 16:1_0:0]

TIMS collisional cross section ([1]; sample type: Human plasma, ion (formula + adduct): [C26H48NO7P+HCOO] 1-): 238.3 ± 0.42 Å² | TIMS collisional cross section ([1]; sample type: Human plasma, ion (formula + adduct): [C26H48NO7P-CH3] 1-): 220.2 Å²
SMILES: CC/C=C\C/C=C\C/C=C\CCCCCCCC(=O)OC[C@@H](O)COP(=O)([O-])OCC[N+](C)(C)C [LPC 18:3_0:0]

TIMS collisional cross section ([1]; sample type: Human plasma, ion (formula + adduct): [C28H54NO7P+HCOO] 1-): 246.6 Å² | TIMS collisional cross section ([1]; sample type: Mouse Liver, ion (formula + adduct): [C28H54NO7P+HCOO] 1-): 245.7 ± 0.42 Å²
SMILES: CCCCC/C=C\C/C=C\CCCCCCCCCC(=O)OC[C@@H](O)COP(=O)([O-])OCC[N+](C)(C)C [LPC 20:2_0:0]

TIMS collisional cross section ([1]; sample type: Human plasma, ion (formula + adduct): [C28H52NO7P+HCOO] 1-): 245.03 ± 0.87 Å² | TIMS collisional cross section ([1]; sample type: Human plasma, ion (formula + adduct): [C28H52NO7P-CH3] 1-): 225.9 Å²
SMILES: CCCCC/C=C\C/C=C\C/C=C\CCCCCCC(=O)OC[C@@H](O)COP(=O)([O-])OCC[N+](C)(C)C [LPC 20:3_0:0]

TIMS collisional cross section ([2]; sample type: plasma): 219 Å²
SMILES: CC(C)CC[C@@H](O)[C@](C)(O)[C@H]1CC[C@@]2(O)C3=CC(=O)[C@@H]4C[C@@H](O)[C@@H](O)C[C@]4(C)[C@H]3CC[C@]12C [ponasterone A] (ion (formula + adduct): [C27H44O6+H] 1+)

TIMS collisional cross section ([2]; sample type: Liver): 219 Å²
SMILES: C1C[C@H](O)C(CO)[C@]2([H])CCC3=C([C@]21C)CC[C@]1(C)[C@@]([H])([C@H](C)CC/C=C(/C)\C)CC[C@]13[H] (some centres not stated) [zymosterol intermediate 1a] (ion (formula + adduct): [C28H46O2+H] 1+)
